Test results taken from patent publication US20260327214A1, “1,3,4-OXADIAZOLE DERIVATIVE COMPOUNDS AS HISTONE DEACETYLASE 6 INHIBITOR, AND USES THEREOF” (CHONG KUN DANG PHARMACEUTICAL CORP., priority 2022, published 2026).

Assays:
human recombinant HDAC6 = molecular target: T1, human recombinant HDAC6 (Homo sapiens, UniProt Q9UBN7); experiment: HDAC6 enzyme activity inhibition test (HDAC Fluorometric Drug Discovery Kit); type: biochemical; conditions: for HDAC6 selectivity (fold): HDAC6 over HDAC1; for IC50: human recombinant HDAC6, same protocol as HDAC1
T1 construct: purchased Calbiochem 382180
T1 sequence (Q9UBN7 1-1215): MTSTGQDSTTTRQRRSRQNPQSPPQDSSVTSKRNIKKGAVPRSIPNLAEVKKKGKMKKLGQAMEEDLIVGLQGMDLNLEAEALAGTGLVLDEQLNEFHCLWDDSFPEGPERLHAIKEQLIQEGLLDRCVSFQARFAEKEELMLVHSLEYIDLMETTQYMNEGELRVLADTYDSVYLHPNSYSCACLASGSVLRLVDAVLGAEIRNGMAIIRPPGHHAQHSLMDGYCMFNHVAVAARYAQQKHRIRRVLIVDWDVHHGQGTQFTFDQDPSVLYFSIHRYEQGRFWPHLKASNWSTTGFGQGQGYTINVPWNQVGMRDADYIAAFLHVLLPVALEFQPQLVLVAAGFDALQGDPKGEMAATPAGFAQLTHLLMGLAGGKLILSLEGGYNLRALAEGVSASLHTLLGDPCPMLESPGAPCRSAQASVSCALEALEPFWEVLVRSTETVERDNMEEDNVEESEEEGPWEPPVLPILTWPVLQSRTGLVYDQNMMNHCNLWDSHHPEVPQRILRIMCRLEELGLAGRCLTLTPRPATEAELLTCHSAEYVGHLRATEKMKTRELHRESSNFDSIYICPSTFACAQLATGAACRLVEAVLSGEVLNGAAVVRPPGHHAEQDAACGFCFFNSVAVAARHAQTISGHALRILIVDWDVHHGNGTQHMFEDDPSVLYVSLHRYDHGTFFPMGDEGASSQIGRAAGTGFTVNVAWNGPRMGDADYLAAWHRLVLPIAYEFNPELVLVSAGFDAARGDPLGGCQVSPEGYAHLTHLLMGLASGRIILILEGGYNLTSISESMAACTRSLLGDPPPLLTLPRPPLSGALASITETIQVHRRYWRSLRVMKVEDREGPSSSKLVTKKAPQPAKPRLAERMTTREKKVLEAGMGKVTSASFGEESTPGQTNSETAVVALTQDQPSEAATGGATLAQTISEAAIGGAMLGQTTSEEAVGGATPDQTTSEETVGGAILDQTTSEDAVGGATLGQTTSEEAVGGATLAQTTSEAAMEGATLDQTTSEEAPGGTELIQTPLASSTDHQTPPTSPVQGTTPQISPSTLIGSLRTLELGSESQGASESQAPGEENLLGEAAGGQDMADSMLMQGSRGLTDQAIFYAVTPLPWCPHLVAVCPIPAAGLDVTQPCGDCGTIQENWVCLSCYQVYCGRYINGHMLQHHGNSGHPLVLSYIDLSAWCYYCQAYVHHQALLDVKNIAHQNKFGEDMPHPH
Summary of the method: (§1)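 Recombinant human HDAC1 or HDAC6 (0.3 μg) reacted with 10 μM Fluor de Lys SIRT1 substrate and 5-fold diluted compound for 60 min at 30 °C. Developer II added 30 min; fluorescence read at Ex 360/Em 460 and IC50 calculated.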

human recombinant HDAC1 = molecular target: T2, human recombinant HDAC1 (Homo sapiens, UniProt Q13547); experiment: HDAC1 enzyme activity inhibition test (HDAC Fluorometric Drug Discovery Kit); type: biochemical; conditions: 30° C., 60 minutes, 10 μM substrate
T2 construct: purchased Enzo Life Science BML-SE456
T2 sequence (Q13547 whole entry): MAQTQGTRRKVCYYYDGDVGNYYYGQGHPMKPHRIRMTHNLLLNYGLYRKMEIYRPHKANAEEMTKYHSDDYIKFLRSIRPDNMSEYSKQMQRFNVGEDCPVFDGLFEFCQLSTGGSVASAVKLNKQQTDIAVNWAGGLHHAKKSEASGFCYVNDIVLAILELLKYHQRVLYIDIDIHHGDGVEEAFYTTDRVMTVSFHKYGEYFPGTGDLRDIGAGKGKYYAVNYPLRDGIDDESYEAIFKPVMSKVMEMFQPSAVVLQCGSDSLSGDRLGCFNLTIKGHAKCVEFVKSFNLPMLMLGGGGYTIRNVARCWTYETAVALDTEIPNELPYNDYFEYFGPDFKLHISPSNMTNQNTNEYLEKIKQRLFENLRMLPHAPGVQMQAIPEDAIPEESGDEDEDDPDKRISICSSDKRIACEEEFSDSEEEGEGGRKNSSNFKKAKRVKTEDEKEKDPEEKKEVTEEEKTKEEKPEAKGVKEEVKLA
Summary of the method: as §1

`O=c1oc(-c2ccc(N3CCNCC3)cc2)nn1Cc1ccc(-c2nnc(C(F)F)o2)cn1` [Compound 20, 3-[[5-[5-(difluoromethyl)-1,3,4-oxadiazol-2-yl]-2-pyridyl]methyl]-5-(4-piperazin-1-ylphenyl)-1,3,4-oxadiazol-2-one] was tested, and the “HDAC6 selectivity (fold)” value (human recombinant HDAC6) was 653 fold, the IC50 (human recombinant HDAC6) was 76.6 nM and the IC50 (human recombinant HDAC1) was > 50000 nM.
With `Cn1ccc2cc(-c3nn(Cc4ccc(-c5nnc(C(F)F)o5)cn4)c(=O)o3)ccc21` [Compound 19] the “HDAC6 selectivity (fold)” value (human recombinant HDAC6) was 1511 fold, the IC50 (human recombinant HDAC6) was 33.1 nM and the IC50 (human recombinant HDAC1) was > 50000 nM.
For `O=c1oc(-c2ccc3[nH]ccc3c2)nn1Cc1ccc(-c2nnc(C(F)F)o2)cn1` [Compound 3, 3-[[5-[5-(difluoromethyl)-1,3,4-oxadiazol-2-yl]-2-pyridyl]methyl]-5-(1H-indol-5-yl)-1,3,4-oxadiazol-2-one], the “HDAC6 selectivity (fold)” value (human recombinant HDAC6) was 3497 fold, the IC50 (human recombinant HDAC6) was 14.3 nM and the IC50 (human recombinant HDAC1) was > 50000 nM.
`O=C1OCC(c2ccccn2)=NN1Cc1ccc(-c2nnc(C(F)F)o2)cn1` [Compound 72, 3-[[5-[5-(difluoromethyl)-1,3,4-oxadiazol-2-yl]-2-pyridyl]methyl]-5-(2-pyridyl)-6H-1,3,4-oxadiazin-2-one] was tested, and the “HDAC6 selectivity (fold)” value (human recombinant HDAC6) was 420 fold, the IC50 (human recombinant HDAC6) was 119 nM and the IC50 (human recombinant HDAC1) was > 50000 nM.
In the case of `O=c1oc(-c2cccc(N3CCN(C4CCC4)CC3)c2)nn1Cc1ccc(-c2nnc(C(F)F)o2)cn1` [Compound 39, 5-[3-(4-cyclobutylpiperazin-1-yl)phenyl]-3-[[5-[5-(difluoromethyl)-1,3,4-oxadiazol-2-yl]-2-pyridyl]methyl]-1,3,4-oxadiazol-2-one], the “HDAC6 selectivity (fold)” value (human recombinant HDAC6) is reported as 605 fold, the IC50 (human recombinant HDAC6) is reported as 82.7 nM and the IC50 (human recombinant HDAC1) is reported as > 50000 nM.
`O=c1oc(-c2ccc3scnc3c2)nn1Cc1ccc(-c2nnc(C(F)F)o2)cn1` [Compound 18, 5-(1,3-benzothiazol-5-yl)-3-[[5-[5-(difluoromethyl)-1,3,4-oxadiazol-2-yl]-2-pyridyl]methyl]-1,3,4-oxadiazol-2-one] was tested, and the “HDAC6 selectivity (fold)” value (human recombinant HDAC6) was 768 fold, the IC50 (human recombinant HDAC6) was 65.1 nM and the IC50 (human recombinant HDAC1) was > 50000 nM.
In the case of `FC(F)c1nnc(-c2ccc(Cn3nc(-c4ccc(CN5CC[C@@H](F)C5)cc4)oc3=S)nc2)o1` [Compound 97, 3-[[5-[5-(difluoromethyl)-1,3,4-oxadiazol-2-yl]-2-pyridyl]methyl]-5-[4-[[(3R)-3-fluoropyrrolidin-1-yl]methyl]phenyl]-1,3,4-oxadiazol-2-thione], the “HDAC6 selectivity (fold)” value (human recombinant HDAC6) is reported as 862 fold, the IC50 (human recombinant HDAC6) is reported as 58.1 nM and the IC50 (human recombinant HDAC1) is reported as > 50000 nM.
In the case of `O=c1sc(-c2ccccc2F)nn1Cc1ccc(-c2nnc(C(F)F)o2)cn1` [Compound 54, 3-[[5-[5-(difluoromethyl)-1,3,4-oxadiazol-2-yl]-2-pyridyl]methyl]-5-(2-fluorophenyl)-1,3,4-thiadiazol-2-one], the “HDAC6 selectivity (fold)” value (human recombinant HDAC6) is reported as 444 fold, the IC50 (human recombinant HDAC6) is reported as 113 nM and the IC50 (human recombinant HDAC1) is reported as > 50000 nM.
With `CN(C)Cc1ccc(-c2nn(Cc3ncc(-c4nnc(C(F)F)o4)cc3F)c(=S)o2)cc1` [Compound 107, 3-[[5-[5-(difluoromethyl)-1,3,4-oxadiazol-2-yl]-3-fluoro-2-pyridyl]methyl]-5-[4-[(dimethylamino)methyl]phenyl]-1,3,4-oxadiazol-2-thione] the “HDAC6 selectivity (fold)” value (human recombinant HDAC6) was 1163 fold, the IC50 (human recombinant HDAC6) was 43 nM and the IC50 (human recombinant HDAC1) was > 50000 nM.
In the case of `CC(C)N1CCN(c2cc(-c3nn(Cc4ccc(-c5nnc(C(F)F)o5)cn4)c(=S)o3)ccn2)CC1` [Compound 105, 3-[[5-[5-(difluoromethyl)-1,3,4-oxadiazol-2-yl]-2-pyridyl]methyl]-5-[2-(4-isopropylpiperazin-1-yl)-4-pyridyl]-1,3,4-oxadiazol-2-thione], the “HDAC6 selectivity (fold)” value (human recombinant HDAC6) is reported as 734 fold, the IC50 (human recombinant HDAC6) is reported as 68.1 nM and the IC50 (human recombinant HDAC1) is reported as > 50000 nM.
In the case of `CNCc1ccc(-c2nn(Cc3ncc(-c4nnc(C(F)F)o4)cc3F)c(=S)o2)cc1` [Compound 108, 3-[[5-[5-(difluoromethyl)-1,3,4-oxadiazol-2-yl]-3-fluoro-2-pyridyl]methyl]-5-[4-(methylaminomethyl)phenyl]-1,3,4-oxadiazol-2-thione], the “HDAC6 selectivity (fold)” value (human recombinant HDAC6) is reported as 1475 fold, the IC50 (human recombinant HDAC6) is reported as 33.9 nM and the IC50 (human recombinant HDAC1) is reported as > 50000 nM.
